Measurements published in the supplement of paper PMC13380429.

Columns and labels:
Conditions in all cases: 72 h
[1] = test system: U2OS; experiment: cell viability relative to DMSO; higher = less toxic
[2] = test system: HepG2; experiment: as above
[3] = test system: Calu-3; experiment: as above
[4] = test system: Vero E6; experiment: as above
[5] = test system: Caco-2; experiment: as above
[6] = test system: U2OS; experiment: relative viability EC50 (midpoint between 100% and the lowest measured viability); higher = less toxic
[7] = test system: HepG2; experiment: as above
[8] = test system: Calu-3; experiment: as above
[9] = test system: Vero E6; experiment: as above
[10] = test system: Caco-2; experiment: as above
[11] = test system: U2OS; experiment: drug sensitivity score (DSS) for viability; higher = more toxic; extreme values may be limits of the assay
[12] = test system: HepG2; experiment: as above
[13] = test system: Calu-3; experiment: as above
[14] = test system: Vero E6; experiment: as above
[15] = test system: Caco-2; experiment: as above

With `CCCCN(CCCC)CC(O)c1cc(Cl)cc2c1-c1ccc(Cl)cc1/C2=C/c1ccc(Cl)cc1` (stereo not given) [lumefantrine] the cell viability ([1]; 1 nM) was 101%, the cell viability ([1]; 10 nM) was 101% and the cell viability ([1]; 100 nM) was 103%. The cell viability ([1]; 1000 nM) was 103%, the cell viability ([1]; 10000 nM) was 95.2% and the cell viability ([2]; 1 nM) was 98.9%. The cell viability ([2]; 10 nM) was 113%, the cell viability ([2]; 100 nM) was 107% and the cell viability ([2]; 1000 nM) was 108%. For the same compound, the cell viability ([2]; 10000 nM) was 84.2%, the cell viability ([3]; 1 nM) was 82.9% and the cell viability ([3]; 10 nM) was 102%. The cell viability ([3]; 100 nM) was 90%, the cell viability ([3]; 1000 nM) was 102% and the cell viability ([3]; 10000 nM) was 94.4%. For the same compound, the cell viability ([4]; 1 nM) was 102%, the cell viability ([4]; 10 nM) was 102% and the cell viability ([4]; 100 nM) was 102%. The cell viability ([4]; 1000 nM) was 105%, the cell viability ([4]; 10000 nM) was 91.2% and the cell viability ([5]; 1 nM) was 99.8%. For the same compound, the cell viability ([5]; 10 nM) was 92.6%, the cell viability ([5]; 100 nM) was 101% and the cell viability ([5]; 1000 nM) was 94.5%. The cell viability ([5]; 10000 nM) was 89.5%, the “relative viability EC50” value [6] was over 10 µM and the “relative viability EC50” value [7] was over 10 µM. For the same compound, the “relative viability EC50” value [8] was over 10 µM, the “relative viability EC50” value [9] was over 10 µM and the “relative viability EC50” value [10] was over 10 µM. For the same compound, the drug sensitivity score [11] was 0, the drug sensitivity score [12] was 0.1 and the drug sensitivity score [13] was 0. The drug sensitivity score [14] was 0 and the drug sensitivity score [15] was 0.

`COc1cccc2c1C(=O)c1c(O)c3c(c(O)c1C2=O)C[C@@](O)(C(=O)CO)C[C@@H]3O[C@H]1C[C@H](N2CCO[C@H](OC)C2)[C@H](O)[C@H](C)O1` [nemorubicin] showed a cell viability ([1]; 1 nM) of 91.8%, a cell viability ([1]; 10 nM) of 1.3% and a cell viability ([1]; 100 nM) of 0.9%. The cell viability ([1]; 1000 nM) was 0.3%, the cell viability ([1]; 10000 nM) was 1.3% and the cell viability ([2]; 1 nM) was 55.4%. For the same compound, the cell viability ([2]; 10 nM) was 0.1%, the cell viability ([2]; 100 nM) was 6.3% and the cell viability ([2]; 1000 nM) was 3%. For the same compound, the cell viability ([2]; 10000 nM) was 1.5%, the cell viability ([3]; 1 nM) was 69.2% and the cell viability ([3]; 10 nM) was 21.2%. For the same compound, the cell viability ([3]; 100 nM) was 35.1%, the cell viability ([3]; 1000 nM) was 31.5% and the cell viability ([3]; 10000 nM) was 30%. It also gave a cell viability ([4]; 1 nM) of 72.6%, a cell viability ([4]; 10 nM) of 2.4% and a cell viability ([4]; 100 nM) of 2.8%. It also gave a cell viability ([4]; 1000 nM) of 0.8%, a cell viability ([4]; 10000 nM) of 2.7% and a cell viability ([5]; 1 nM) of 88.8%. It also gave a cell viability ([5]; 10 nM) of 24.6%, a cell viability ([5]; 100 nM) of 30.4% and a cell viability ([5]; 1000 nM) of 32.6%. For the same compound, the cell viability ([5]; 10000 nM) was 24.5%, the “relative viability EC50” value [6] was 0.0025 µM and the “relative viability EC50” value [7] was 0.0011 µM. For the same compound, the “relative viability EC50” value [8] was 0.0012 µM, the “relative viability EC50” value [9] was 0.0016 µM and the “relative viability EC50” value [10] was 0.002 µM. The drug sensitivity score [11] was 44.1, the drug sensitivity score [12] was 48 and the drug sensitivity score [13] was 38.4. It also gave a drug sensitivity score [14] of 46.1 and a drug sensitivity score [15] of 35.1.

For `OCc1cccnc1` [nicotinyl-alcohol-tartrate], the cell viability ([1]; 1 nM) was 102%, the cell viability ([1]; 10 nM) was 104% and the cell viability ([1]; 100 nM) was 96.7%. It also gave a cell viability ([1]; 1000 nM) of 100%, a cell viability ([1]; 10000 nM) of 95.5% and a cell viability ([2]; 1 nM) of 95.4%. For the same compound, the cell viability ([2]; 10 nM) was 102%, the cell viability ([2]; 100 nM) was 91.2% and the cell viability ([2]; 1000 nM) was 104%. For the same compound, the cell viability ([2]; 10000 nM) was 96.1%, the cell viability ([3]; 1 nM) was 96.6% and the cell viability ([3]; 10 nM) was 100%. The cell viability ([3]; 100 nM) was 92.7%, the cell viability ([3]; 1000 nM) was 99.3% and the cell viability ([3]; 10000 nM) was 96.4%. It also gave a cell viability ([4]; 1 nM) of 92.6%, a cell viability ([4]; 10 nM) of 101% and a cell viability ([4]; 100 nM) of 87.8%. It also gave a cell viability ([4]; 1000 nM) of 101%, a cell viability ([4]; 10000 nM) of 91.8% and a cell viability ([5]; 1 nM) of 97.8%. It also gave a cell viability ([5]; 10 nM) of 97%, a cell viability ([5]; 100 nM) of 102% and a cell viability ([5]; 1000 nM) of 96.1%. The cell viability ([5]; 10000 nM) was 106%, the “relative viability EC50” value [6] was over 10 µM and the “relative viability EC50” value [7] was over 10 µM. The “relative viability EC50” value [8] was over 10 µM, the “relative viability EC50” value [9] was over 10 µM and the “relative viability EC50” value [10] was over 10 µM. It also gave a drug sensitivity score [11] of 0, a drug sensitivity score [12] of 0 and a drug sensitivity score [13] of 0. It also gave a drug sensitivity score [14] of 0 and a drug sensitivity score [15] of 0.

Work on `O=C1NCCN1c1ncc([N+](=O)[O-])s1` [niridazole] yielded a cell viability ([1]; 1 nM) of 97.1%, a cell viability ([1]; 10 nM) of 98.7% and a cell viability ([1]; 100 nM) of 99.3%. For the same compound, the cell viability ([1]; 1000 nM) was 94.8%, the cell viability ([1]; 10000 nM) was 99.8% and the cell viability ([2]; 1 nM) was 105%. It also gave a cell viability ([2]; 10 nM) of 98.8%, a cell viability ([2]; 100 nM) of 105% and a cell viability ([2]; 1000 nM) of 106%. It also gave a cell viability ([2]; 10000 nM) of 97.8%, a cell viability ([3]; 1 nM) of 99.6% and a cell viability ([3]; 10 nM) of 107%. For the same compound, the cell viability ([3]; 100 nM) was 96.6%, the cell viability ([3]; 1000 nM) was 88% and the cell viability ([3]; 10000 nM) was 103%. The cell viability ([4]; 1 nM) was 102%, the cell viability ([4]; 10 nM) was 104% and the cell viability ([4]; 100 nM) was 108%. It also gave a cell viability ([4]; 1000 nM) of 115%, a cell viability ([4]; 10000 nM) of 85.5% and a cell viability ([5]; 1 nM) of 105%. It also gave a cell viability ([5]; 10 nM) of 80.1%, a cell viability ([5]; 100 nM) of 93.2% and a cell viability ([5]; 1000 nM) of 87.8%. The cell viability ([5]; 10000 nM) was 102%, the “relative viability EC50” value [6] was over 10 µM and the “relative viability EC50” value [7] was over 10 µM. The “relative viability EC50” value [8] was over 10 µM, the “relative viability EC50” value [9] was over 10 µM and the “relative viability EC50” value [10] was over 10 µM. The drug sensitivity score [11] was 0, the drug sensitivity score [12] was 0 and the drug sensitivity score [13] was 0. The drug sensitivity score [14] was 0.1 and the drug sensitivity score [15] was 0.

`CC(C)C[C@@H](N)C(=O)N[C@H]1C(=O)N[C@@H](CC(N)=O)C(=O)N[C@H]2C(=O)N[C@H]3C(=O)N[C@H](C(=O)N[C@H](C(=O)O)c4cc(O)cc(O)c4-c4cc3ccc4O)[C@H](O)c3ccc(c(Cl)c3)Oc3cc2cc(c3O[C@@H]2O[C@H](CO)[C@@H](O)[C@H](O)[C@H]2O[C@H]2C[C@](C)(N)[C@H](O)[C@H](C)O2)Oc2ccc(cc2Cl)[C@H]1O` [norvancomycin] showed a cell viability ([1]; 1 nM) of 100%, a cell viability ([1]; 10 nM) of 104% and a cell viability ([1]; 100 nM) of 96.6%. The cell viability ([1]; 1000 nM) was 102%, the cell viability ([1]; 10000 nM) was 102% and the cell viability ([2]; 1 nM) was 102%. The cell viability ([2]; 10 nM) was 95.8%, the cell viability ([2]; 100 nM) was 97.3% and the cell viability ([2]; 1000 nM) was 86.9%. For the same compound, the cell viability ([2]; 10000 nM) was 97.7%, the cell viability ([3]; 1 nM) was 102% and the cell viability ([3]; 10 nM) was 100%. It also gave a cell viability ([3]; 100 nM) of 104%, a cell viability ([3]; 1000 nM) of 97.9% and a cell viability ([3]; 10000 nM) of 91.9%. The cell viability ([4]; 1 nM) was 109%, the cell viability ([4]; 10 nM) was 94.8% and the cell viability ([4]; 100 nM) was 102%. For the same compound, the cell viability ([4]; 1000 nM) was 97%, the cell viability ([4]; 10000 nM) was 104% and the cell viability ([5]; 1 nM) was 91.9%. The cell viability ([5]; 10 nM) was 93.8%, the cell viability ([5]; 100 nM) was 104% and the cell viability ([5]; 1000 nM) was 95.7%. The cell viability ([5]; 10000 nM) was 98.5%, the “relative viability EC50” value [6] was over 10 µM and the “relative viability EC50” value [7] was over 10 µM. The “relative viability EC50” value [8] was over 10 µM, the “relative viability EC50” value [9] was over 10 µM and the “relative viability EC50” value [10] was over 10 µM. It also gave a drug sensitivity score [11] of 0, a drug sensitivity score [12] of 0 and a drug sensitivity score [13] of 0. For the same compound, the drug sensitivity score [14] was 0 and the drug sensitivity score [15] was 0.
